Assays:
[1] = target: human A2a adenosine receptor (Homo sapiens (Human), UniProt P29274); experiment: A2a receptor affinity radioligand binding assay ([3H] SCH58261, membranes from HEK293 or CHO cells); conditions: unstarred values: radioligand binding
Procedure, shortened: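 Displacement of tritiated SCH58261 (working dilution 4 nM) from recombinant human A2a receptor membranes (HEK293 or CHO), 60 min at room temperature in Tris pH 7.4/MgCl2 buffer after 15–30 min compound preincubation. Scintillation counting after filtration; normalized percent effect fitted 4-parameter logistic for IC50.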

[2] = target: T1, human A2b adenosine receptor (Homo sapiens (Human), UniProt P29275); experiment: A2B antagonism in cAMP cell-based assay (LANCE cAMP, HEK293 cells, 600 nM adenosine); conditions: for IC50: values marked *: cAMP cell-based assay
Description: Measurement of A2A and A2B Antagonism in cAMP Cell-Based Assay
All subsequent liquid additions were performed using a multichannel pipettor. […] After this time 5 μL of either 300 nM or 600 nM adenosine (Sigma Cat. No. A9251) for A2A and A2B respectively was added and incubated for 30 minutes at 37° C. and 5% CO2 in a humidified environment. At this time detection mix was prepared by combining the LANCE Eu-W8044 labeled streptavidin and. Biotin-cAMP in detection buffer according to the manufacturers protocol. […] Curve fitting of the percent effect data versus the log of compound concentration used a 4-parameter concentration response curve fitting algorithm to calculate IC50 values.

[3] = target: T1, human A2b adenosine receptor; experiment: A2b radioligand filtration binding assay (tritiated proprietary A2b antagonist, HEK293 membranes); conditions: for IC50: unstarred values: radioligand binding
Procedure, shortened: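 Displacement of a tritiated proprietary A2b antagonist from membranes of HEK293 cells recombinantly expressing human A2b receptor, measured by filtration and scintillation counting. Percent effect was normalized to total and non-specific binding and fitted with a 4-parameter logistic to give IC50.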

Chain of human A2a adenosine receptor (P29274 whole entry): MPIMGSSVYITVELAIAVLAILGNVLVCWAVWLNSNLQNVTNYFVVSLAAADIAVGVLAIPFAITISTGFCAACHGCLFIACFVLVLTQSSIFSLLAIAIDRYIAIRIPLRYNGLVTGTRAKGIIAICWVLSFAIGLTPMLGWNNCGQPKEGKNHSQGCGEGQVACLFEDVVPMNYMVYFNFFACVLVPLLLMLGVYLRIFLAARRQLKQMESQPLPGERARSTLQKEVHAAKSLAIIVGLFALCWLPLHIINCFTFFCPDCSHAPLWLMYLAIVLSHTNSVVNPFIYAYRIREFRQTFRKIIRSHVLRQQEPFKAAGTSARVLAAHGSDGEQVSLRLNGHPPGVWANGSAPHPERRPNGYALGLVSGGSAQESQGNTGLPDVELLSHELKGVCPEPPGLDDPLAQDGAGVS
T1 sequence (P29275 whole entry): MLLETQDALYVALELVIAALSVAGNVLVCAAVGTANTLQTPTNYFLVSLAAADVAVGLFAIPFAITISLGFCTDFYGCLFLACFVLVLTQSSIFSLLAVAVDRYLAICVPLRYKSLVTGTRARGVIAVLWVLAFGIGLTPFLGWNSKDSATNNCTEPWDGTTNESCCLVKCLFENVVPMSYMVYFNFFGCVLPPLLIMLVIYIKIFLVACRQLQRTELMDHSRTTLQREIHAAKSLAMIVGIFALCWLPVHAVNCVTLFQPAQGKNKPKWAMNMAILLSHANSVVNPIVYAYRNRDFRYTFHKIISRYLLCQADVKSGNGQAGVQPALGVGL

Row | SMILES | IC50 [1] [µM] | IC50 [2] [µM] | *A2B cAMP ^ % @ 10000 nM ([2]; @ 10000 nM, marked *, printed with ^ and without inh.) [% @ 10000 nM*] | IC50 [3] [µM] | A2B binding % inh. @ 10000 nM ([3]; @ 10000 nM, unstarred) [% inh. @ 10000 nM]
1 | Nc1nc2c(Cl)cccc2c2nc(C3CCCN(c4cnn(C5CC5)c4)C3)nn12 (racemic) [Example 133, rac-7-chloro-2-(1-(1-cyclopropyl-1H-pyrazol-4-yl)piperidin-3-yl)-[1,2,4]triazolo[1,5-c]pyquinazolin-5-amine] | 0.0012 | 0.116 | – | – | –
2 | Cn1cc(N2CCCC(c3nc4c5cccc(F)c5nc(N)n4n3)C2)cn1 (single isomer, unassigned) [Example 131A, (R or S)-7-fluoro-2-(1-(1-methyl-1H-pyrazol-4-yl)piperidin-3-yl)-[1,2,4]triazolo[1,5-c]quinazolin-5-amine] | 0.034 | 1.68 | – | – | –
3 | Cn1cc(N2CCCC(c3nc4c5cccc(F)c5nc(N)n4n3)C2)cn1 (single isomer, unassigned) [Example 131B, (S or R)-7-fluoro-2-(1-(1-methyl-1H-pyrazol-4-yl)piperidin-3-yl)-[1,2,4]triazolo[1,5-c]quinazolin-5-amine] | 0.0093 | 0.121 | – | – | –
4 | Cn1cc(N2CCCC(c3nc4c5cccc(Cl)c5nc(N)n4n3)C2)cn1 (single isomer, unassigned) [Example 132A] | 0.0186 | – | 31 | – | –
5 | Cn1cc(N2CCCC(c3nc4c5cccc(Cl)c5nc(N)n4n3)C2)cn1 (single isomer, unassigned) [Example 132B] | 0.0039 | 0.205 | – | – | –
6 | COc1ccc2c(c1)nc(N)n1nc([C@@H]3CCCN(c4cnn([C@@H](C)C(C)(C)O)c4C)C3)nc21 [Example 189B, (S)-3-(4-((R)-3-(5-amino-8-methoxy-[1,2,4]triazolo[1,5-c]quinazolin-2-yl)piperidin-1-yl)-5-methyl-1H-pyrazol-1-yl)-2-methylbutan-2-ol] | 0.0007 | – | – | 0.291 | –
7 | COc1ccc2c(c1)nc(N)n1nc([C@@H]3CCCN(c4cnc(OC(F)F)c(C)c4)C3)nc21 [Example 190, (R)-2-(1-(6-(difluoromethoxy)-5-methylpyridin-3-yl)piperidin-3-yl)-8-methoxy-[1,2,4]triazolo[1,5-c]quinazolin-5-amine] | 0.0101 | – | – | 0.48 | –
8 | COc1ccc2c(c1)nc(N)n1nc([C@@H]3CCCN(c4ccc(OC(F)F)nc4)C3)nc21 [Example 191, (R)-2-(-(6-(difluoromethoxy)pyridin-3-yl)piperidin-3-yl)-8-methoxy-[1,2,4]triazolo[1,5-c]quinazolin-5-amine] | 0.0025 | – | – | 0.0184 | –
9 | COc1ccc2c(c1)nc(N)n1nc([C@@H]3CCCN(c4ccc(OC(C)C)nc4)C3)nc21 [Example 192, (R)-2-(1-(6-isopropoxypyridin-3-yl)piperidin-3-yl)-8-methoxy-[1,2,4]triazolo[1,5-c]quinazolin-5-amine] | 0.0025 | – | – | 0.0227 | –
10 | COc1ccc2c(c1)nc(N)n1nc([C@@H]3CCCN(c4ccc(C(C)=O)cc4)C3)nc21 [Example 193, (R)-1-(4-(3-(5-amino-8-methoxy-[1,2,4]-triazolo[1,5-c]quinazolin-2-yl)piperidin-1-yl)phenyl)ethan-1-one] | 0.0022 | – | – | 0.13 | –
11 | COc1ccc2c(c1)nc(N)n1nc([C@@H]3CCCN(c4ncn(CC(C)(C)O)n4)C3)nc21 [Example 194, (R)-1-(3-(3-(5-amino-8-methoxy-[1,2,4]triazolo[1,5-c]quinazolin-2-yl)piperidin-1-yl)-1H-1,2,4-triazol-1-yl)-2-methylpropan-2-ol] | 0.0067 | – | – | 0.528 | –
12 | C[C@H]1CC[C@@H](c2nc3c4ccc(C(F)F)cc4nc(N)n3n2)CN1c1cnn(CC(C)(C)O)c1 [Example 201, 1-(4-((2S,5R)-5-(5-amino-8-(difluoromethyl)-[1,2,4]triazolo[1,5-c]quinazolin-2-yl)-2-methylpiperidin-1-yl)-1H-pyrazol-1-yl)-2-methylpropan-2-ol] | 0.0028 | – | – | 0.0106 | –
13 | C[C@H]1CC[C@@H](c2nc3c4ccc(C#N)cc4nc(N)n3n2)CN1c1cnn(CC(C)(C)O)c1 [Example 202, 5-amino-2-((3R,6S)-1-(1-(2-hydroxy-2-methylpropyl)-1H-pyrazol-4-yl)-6-methylpiperidin-3-yl)-[1,2,4]triazolo[1,5-c]quinazoline-8-carbonitrile] | 0.0042 | – | – | 0.211 | –
14 | C[C@H]1CC[C@@H](c2nc3c4ccc(Cl)cc4nc(N)n3n2)CN1c1cnn(CC(C)(C)O)c1 [Example 203, 1-(4-((2S,5R)-5-(5-amino-8-chloro-[1,2,4]triazolo[1,5-c]quinazolin-2-yl)-2-methylpiperidin-1-yl)-1H-pyrazol-1-yl)-2-methylpropan-2-ol] | 0.0007 | – | – | 0.0017 | –
15 | COc1ccc2c(c1)nc(N)n1nc([C@@H]3CC[C@H](C)N(c4cnn(CC(C)(C)O)c4)C3)nc21 [Example 204, 1-(4-((2S,5R)-5-(5-amino-8-methoxy-[1,2,4]triazolo[1,5-c]quinazolin-2-yl)-2-methylpiperidin-1-yl)-1H-pyrazol-1-yl)-2-methylpropan-2-ol] | 0.0004 | – | – | 0.0011 | –
16 | CCc1ccc2c(c1)nc(N)n1nc([C@@H]3CC[C@H](C)N(c4cnn(CC(C)(C)O)c4)C3)nc21 [Example 207, 1-(4-((2S,5R)-5-(5-amino-8-ethyl-[1,2,4]triazolo[1,5-c]quinazolin-2-yl)-2-methylpiperidin-1-yl)-1H-pyrazol-1-yl)-2-methylpropan-2-ol] | 0.0028 | – | – | 0.125 | –
17 | C[C@H]1CC[C@@H](c2nc3c4ccc(C5CCC5)cc4nc(N)n3n2)CN1c1cnn(CC(C)(C)O)c1 [Example 209, 1-(4-((2S,5R)-5-(5-amino-8-cyclobutyl-[1,2,4]triazolo[1,5-c]quinazolin-2-yl)-2-methylpiperidin-1-yl)-1H-pyrazol-1-yl)-2-methylpropan-2-ol] | 0.0287 | – | – | 0.328 | –
18 | COc1ccc2c(c1)nc(N)n1nc(C3CCCCN(c4cnn(CC(C)(C)O)c4)C3)nc21 (stereo not shown) [Example 217, 1-(4-(3-(5-amino-8-methoxy-[1,2,4]triazolo[1,5-c]quinazolin-2-yl)azepan-1-yl)-1H-pyrazol-1-yl)-2-methylpropan-2-ol] | 0.0046 | – | – | 0.207 | –

Continued, values first:

Row | IC50 [1] [µM] | IC50 [2] [µM] | *A2B cAMP ^ % @ 10000 nM ([2]; @ 10000 nM, marked *, printed with ^ and without inh.) [% @ 10000 nM*] | IC50 [3] [µM] | A2B binding % inh. @ 10000 nM ([3]; @ 10000 nM, unstarred) [% inh. @ 10000 nM] | SMILES
19 | 0.0359 | – | – | 5.81 | – | COc1ccc2c(c1)nc(N)n1nc([C@H]3C[C@@H](C)CN(c4cnn(CC(C)(C)O)c4)C3)nc21 [Example 195A]
20 | 0.0017 | – | – | 9.69 | – | COc1ccc2c(c1)nc(N)n1nc([C@@H]3C[C@@H](C)CN(c4cnn(CC(C)(C)O)c4)C3)nc21 [Example 195B]
21 | 0.281 | – | – | 9.45 | – | COc1ccc2c(c1)nc(N)n1nc([C@H]3C[C@H](C)CN(c4cnn(CC(C)(C)O)c4)C3)nc21 [Example 195C]
22 | 0.0029 | – | – | 0.802 | – | COc1ccc2c(c1)nc(N)n1nc([C@H]3C[C@@H](F)CN(c4cnn(CC(C)(C)O)c4)C3)nc21 [Example 196A]
23 | 0.099 | – | – | – | 31 | COc1ccc2c(c1)nc(N)n1nc([C@H]3C[C@@H](F)CN(c4cn(CC(C)(C)O)nc4C)C3)nc21 [Example 197A, 1-(4-((3S,5R)-3-(5-amino-8-methoxy-[1,2,4]triazolo[1,5-c]quinazolin-2-yl)-5-fluoropiperidin-1-yl)-3-methyl-1H-pyrazol-1-yl)-2-methylpropan-2-ol]
24 | 0.0004 | – | – | 1.37 | – | COc1ccc2c(c1)nc(N)n1nc([C@@H]3C[C@H](F)CN(c4cn(CC(C)(C)O)nc4C)C3)nc21 [Example 197B, 1-(4-((3R,5S)-3-(5-amino-8-methoxy-[1,2,4]triazolo[1,5-c]quinazolin-2-yl)-5-fluoropiperidin-1-yl)-3-methyl-1H-pyrazol-1-yl)-2-methylpropan-2-ol]
25 | 0.0002 | – | – | 0.0048 | – | COc1ccc2c(c1)nc(N)n1nc([C@@H]3CC[C@H](C)N(c4cnn(C5CCC[C@H]5O)c4)C3)nc21 (stereo partly shown) [Example 210A]
26 | 0.0005 | – | – | 0.0034 | – | COc1ccc2c(c1)nc(N)n1nc([C@@H]3CC[C@H](C)N(c4cnn([C@@H](C)C(C)(C)O)c4)C3)nc21 [Example 211A, (S)-3-(4-((2S,5R)-5-(5-amino-8-methoxy-[1,2,4]triazolo[1,5-c]quinazolin-2-yl)-2-methylpiperidin-1-yl)-1H-pyrazol-1-yl)-2-methylbutan-2-ol]
27 | 0.0006 | – | – | 0.0161 | – | COc1ccc2c(c1)nc(N)n1nc([C@@H]3CC[C@H](C)N(c4cnn([C@H](C)C(C)(C)O)c4)C3)nc21 [Example 211B, (R)-3-(4-((2S,5R)-5-(5-amino-8-methoxy-[1,2,4]triazolo[1,5-c]quinazolin-2-yl)-2-methylpiperidin-1-yl)-1H-pyrazol-1-yl)-2-methylbutan-2-ol]
28 | 0.221 | – | – | 5.48 | – | COc1ccc2c(c1)nc(N)n1nc([C@H]3CC[C@@H](C)N(c4cnn([C@@H](C)C(C)(C)O)c4)C3)nc21 [Example 212A]
29 | 0.234 | – | – | 8.28 | – | COc1ccc2c(c1)nc(N)n1nc([C@H]3CC[C@@H](C)N(c4cnn([C@H](C)C(C)(C)O)c4)C3)nc21 [Example 212B, (R)--3-(4-((2R,5S)-5-(5-amino-8-methoxy-[1,2,4]triazolo[1,5-c]quinazolin-2-yl)-2-methylpiperidin-1-yl)-1H-pyrazol-1-yl)-2-methylbutan-2-ol]

— patent US12263171B2, “7-, 8-, and 10-substituted amino triazolo quinazoline derivatives as adenosine receptor antagonists, pharmaceutical compositions and their use” (Merck Sharp & Dohme LLC, priority 2018, dated 2025)
